Each molecule was assayed on Endogenous Huntingtin Protein (assay: Endogenous Huntingtin Protein Assay (ELISA-based MSD electrochemiluminescence assay)). Settings: MW1 (expanded polyglutamine) or MAB2166 capture antibody; lysates.
Assay type: cell-based
Experimental: Compounds of Formula (I) were tested using the Meso Scale Discovery (MSD) Assay provided in International Application No. PCT/US2016/066042, filed on Dec. 11, 2016 and claiming priority to United States Provisional Application U.S. 62/265,652 filed on Dec. 10, 2015, the entire contents of which are incorporated herein by reference.
The Endogenous Huntingtin Protein assay used in Example 1 was developed using the ELISA-based MSD electrochemiluminescence assay platform.
Endogenous Huntingtin Protein Assay
Meso Scale Discovery (MSD) 96-well or 384-well plates were coated overnight at 4° C. with MW1 (expanded polyglutamine) or MAB2166 monoclonal antibody (for capture) at a concentration of 1 μg/mL in PBS (30 μL per well). Plates were then washed three times with 300 μL wash buffer (0.05% Tween-20 in PBS) and blocked (100 μL blocking buffer; 5% BSA in PBS) for 4-5 hours at room temperature with rotational shaking and then washed three times with wash buffer.
Samples (25 μL) were transferred to the antibody-coated MSD plate and incubated overnight at 4° C. After removal of the lysates, the plate was washed three times with wash buffer, and 25 μL of #5656S (Cell signaling; rabbit monoclonal) secondary antibody (diluted to 0.25 μg/mL in 0.05% Tween-20 in blocking buffer) was added to each well and incubated with shaking for 1 Hour at room temperature. Following incubation with the secondary antibody, the wells were rinsed with wash buffer after which 25 μL of goat anti-rabbit SULFO TAG secondary detection antibody (required aspect of the MSD system) (diluted to 0.25 μg/mL in 0.05% Tween-20 in blocking buffer) was added to each well and incubated with shaking for 1 hour at room temperature. After rinsing three times with wash buffer, 150 μL of read buffer T with surfactant (MSD) were added to each empty well, and the plate was imaged on a SI 6000 imager (MSD) according to manufacturers' instructions provided for 96- or 384-well plates.

| IC50 | Structure (SMILES) |
| --- | --- |
| < 100 nM | CC(C)(C)NC1CCN(c2cnc(-c3cc(F)c(-c4cn[nH]c4)cc3F)cn2)C1 (centres unmarked) [Cpd 64, N-tert-butyl-1-{5-[2,5-difluoro-4-(1H-pyrazol-4-yl)phenyl]pyrazin-2-yl}pyrrolidin-3-amine] |
| < 100 nM | CC(C)(C)NC1CCN(c2cnc(-c3ccc(-c4c[nH]nc4F)cc3O)cn2)C1 (centres unmarked) [Cpd 65, 2-{5-[3-(tert-butylamino)pyrrolidin-1-yl]pyrazin-2-yl}-5-(3-fluoro-1H-pyrazol-4-yl)phenol] |

Second part, the molecule before the results:

| Structure (SMILES) | IC50 |
| --- | --- |
| CC1(C)CC(Nc2cnc(-c3ccc(-c4ccncc4)cc3O)cn2)CC(C)(C)N1 [Cpd 44, 5-(pyridin-4-yl)-2-{5-[(2,2,6,6-tetramethylpiperidin-4-yl)amino]pyrazin-2-yl} phenol] | 100 to 500 nM |
| CC1(C)CC(Nc2cnc(-c3ccc(-c4cccnc4)cc3O)cn2)CC(C)(C)N1 [Cpd 45, 5-(pyridin-3-yl)-2-{5-[(2,2,6,6-tetramethylpiperidin-4-yl)amino]pyrazin-2-yl}phenol] | 500 to 1000 nM |
| CN(c1cnc(-c2cc(Cl)c(-c3cn[nH]c3)cc2F)cn1)C1CC(C)(C)NC(C)(C)C1 [Cpd 23, 5-[5-chloro-2-fluoro-4-(1H-pyrazol-4-yl)phenyl]-N-methyl-N-(2,2,6,6-tetramethylpiperidin-4-yl)pyrazin-2-amine] | 100 to 500 nM |

— US12103926B2, “Compounds for treating huntington's disease” (PTC THERAPEUTICS, INC., priority 2018, dated 2024)
